{
  "source": "patent US9828344B2",
  "about": "“Inhibitors of the notch signaling pathway and secretion for use in medicine” (Leibniz-Institut für Altersforschung Fritz-Lipmann-Institut …, priority 2012, dated 2017)",
  "key": {"GBF1": {"target": "T1, GBF1 (Homo sapiens, UniProt Q92538)", "T1 construct": "expressed in transfected cells; host or cells: HeLa (transient)", "T1 sequence (Q92538 whole entry, species assumed)": "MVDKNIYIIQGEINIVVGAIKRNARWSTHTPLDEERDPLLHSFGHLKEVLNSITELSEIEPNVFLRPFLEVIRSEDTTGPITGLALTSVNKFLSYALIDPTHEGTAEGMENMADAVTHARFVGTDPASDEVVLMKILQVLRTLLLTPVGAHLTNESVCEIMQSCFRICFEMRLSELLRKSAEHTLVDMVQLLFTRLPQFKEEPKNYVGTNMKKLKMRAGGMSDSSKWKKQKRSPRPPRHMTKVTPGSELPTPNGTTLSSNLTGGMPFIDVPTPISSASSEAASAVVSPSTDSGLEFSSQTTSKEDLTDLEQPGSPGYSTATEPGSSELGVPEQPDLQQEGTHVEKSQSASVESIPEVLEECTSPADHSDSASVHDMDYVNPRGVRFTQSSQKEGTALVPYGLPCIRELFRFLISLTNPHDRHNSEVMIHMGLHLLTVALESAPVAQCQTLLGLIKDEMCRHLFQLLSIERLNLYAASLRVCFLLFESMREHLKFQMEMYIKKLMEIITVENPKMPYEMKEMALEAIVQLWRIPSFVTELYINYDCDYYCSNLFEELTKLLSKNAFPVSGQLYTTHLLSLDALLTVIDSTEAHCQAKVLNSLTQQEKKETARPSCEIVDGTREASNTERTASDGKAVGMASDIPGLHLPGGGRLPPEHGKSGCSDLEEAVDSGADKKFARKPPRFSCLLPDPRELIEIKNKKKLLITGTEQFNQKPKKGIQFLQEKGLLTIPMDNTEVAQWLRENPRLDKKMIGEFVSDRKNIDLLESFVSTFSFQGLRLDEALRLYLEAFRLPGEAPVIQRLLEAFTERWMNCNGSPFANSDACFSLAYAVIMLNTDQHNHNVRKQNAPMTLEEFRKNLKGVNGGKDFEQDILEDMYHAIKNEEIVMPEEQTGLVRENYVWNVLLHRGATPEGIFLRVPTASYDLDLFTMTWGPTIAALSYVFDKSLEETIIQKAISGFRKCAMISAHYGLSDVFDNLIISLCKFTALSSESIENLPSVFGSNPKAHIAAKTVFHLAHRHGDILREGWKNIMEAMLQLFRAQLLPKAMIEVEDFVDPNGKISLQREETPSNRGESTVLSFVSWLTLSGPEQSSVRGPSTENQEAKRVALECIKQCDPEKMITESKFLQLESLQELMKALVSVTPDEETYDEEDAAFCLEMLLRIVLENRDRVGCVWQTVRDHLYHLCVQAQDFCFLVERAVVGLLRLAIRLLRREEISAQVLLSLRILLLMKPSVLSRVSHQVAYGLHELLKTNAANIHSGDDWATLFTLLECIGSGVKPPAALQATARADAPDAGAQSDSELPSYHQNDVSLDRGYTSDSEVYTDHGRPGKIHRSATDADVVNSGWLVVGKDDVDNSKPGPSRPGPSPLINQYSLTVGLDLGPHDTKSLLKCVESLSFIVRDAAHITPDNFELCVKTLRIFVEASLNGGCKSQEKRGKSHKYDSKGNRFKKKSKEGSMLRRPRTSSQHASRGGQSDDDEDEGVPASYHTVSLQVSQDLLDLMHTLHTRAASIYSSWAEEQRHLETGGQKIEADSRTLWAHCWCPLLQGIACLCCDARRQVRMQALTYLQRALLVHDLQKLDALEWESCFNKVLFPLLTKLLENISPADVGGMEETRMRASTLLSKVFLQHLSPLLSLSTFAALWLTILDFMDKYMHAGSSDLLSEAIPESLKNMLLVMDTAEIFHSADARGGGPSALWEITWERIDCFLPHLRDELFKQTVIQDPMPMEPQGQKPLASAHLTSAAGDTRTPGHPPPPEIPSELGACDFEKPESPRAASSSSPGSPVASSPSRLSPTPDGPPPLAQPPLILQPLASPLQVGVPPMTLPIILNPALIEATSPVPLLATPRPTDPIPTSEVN", "assay": "GBF1-GFP distribution in transfected HeLa cells", "format": "cell-based", "conditions": "FLI-06 10 μM, BFA 10 μg/ml, GCA 10 μM, 10 h"}, "YFP-GPI": {"tested_on": "YFP-GPI", "assay": "Surface transport of YFP-GPI in HeLa cells", "format": "cell-based", "conditions": "18 h; 1 ig/ml BFA or 10 iM FLI-06"}, "KlothoS": {"tested_on": "KlothoS", "assay": "Secretion of KlothoS from transfected HeLa cells", "format": "cell-based", "conditions": "18 h", "description": "Thereafter cells were fixed and analyzed by immunofluorescence microscopy. […] After incubating with compounds for 18 h media were collected, cells lysed and both analyzed by Western Blotting using Klotho antibody. As loading control membranes were probed for actin. […] […] Tunicamycin (Tun) and 5 mM DTT were used as positive controls. […] Shown is the average of three independent experiments, error bars indicate standard deviation."}, "BIP and ATF6 [1]": {"tested_on": "BIP and ATF6", "assay": "ER stress: BIP Western blot and ATF6 luciferase assay in HeLa cells", "conditions": "6 or 24 h"}, "Golgi apparatus": {"tested_on": "Golgi apparatus", "assay": "Immunofluorescence of Golgi and early secretory pathway markers in HeLa cells", "format": "cell-based"}, "endocytosis": {"tested_on": "endocytosis", "assay": "Transferrin uptake assay", "format": "cell-based", "description": "FIG. 13: FLI-06 causes dispersal of early Golgi and TGN, but no tubulation of endosomes. Hela cells were incubated with DMSO or 10 iM FLI-06 or 1 ig/ml BFA for 18 h, fixed, stained with antibodies as indicated and imaged by fluorescence microscopy. Endosomes were visualized by adding Alexa555-labelled transferrin on ice and chasing for 15 min at 37° C. in the presence of indicated compounds. Arrows indicated tubulating endosomes, scalebar 10 im.\nFor the transferrin uptake assay cells were starved in serum free medium for 1 h at 37° C. Cells were then transferred on ice and medium was exchanged to serum free medium supplemented with 25 μg/ml AlexaFluor555-Transferrin conjugate (Molecular Probes) and test compounds. After 15 min on ice cells were incubated with pre-warmed serum-supplemented medium containing test compounds and incubated at 37° C."}, "BIP and ATF6 [2]": {"tested_on": "BIP and ATF6"}, "microtubuli or actin": {"tested_on": "microtubuli or actin", "assay": "Microtubule and actin integrity in HeLa cells", "format": "cell-based", "conditions": "4 h"}},
  "note": "Where two headings read alike, the source gives them in different places.",
  "data": [
    {"smiles": "C[C@H]1CCC/C=C/[C@@H]2C[C@H](O)C[C@H]2[C@H](O)/C=C/C(=O)O1", "note": "[BFA, Brefeldin A, reference compound]", "values": [
      {"measurement": "distribution of GBF1-GFP", "setting": "GBF1", "result": "recruited to the fragmented Golgi"},
      {"measurement": "surface transport of YFP-GPI", "setting": "YFP-GPI", "result": "inhibit surface transport of YFP-GPI"},
      {"measurement": "secretion of KlothoS", "setting": "KlothoS", "result": "inhibit secretion of KlothoS"},
      {"measurement": "ER-stress (BIP up-regulation, ATF6 luciferase)", "setting": "BIP and ATF6 [1]", "result": "caused ER-stress"},
      {"measurement": "time to loss of Golgi-like juxtanuclear βCOP staining", "setting": "Golgi apparatus; 1 ig/ml BFA or 10 iM FLI-06", "result": 10, "unit": "min"},
      {"measurement": "distribution of GM130 and TGN46", "setting": "Golgi apparatus; 10 iM FLI-06 or 1 ig/ml BFA, 18 h", "result": "dispersal of the cis-Golgi marker GM130 and of the trans-Golgi network (TGN) marker TGN46"},
      {"measurement": "hyperglycosylation of VSVG-EGFP", "setting": "Golgi apparatus; 4 h at 40° C. with cycloheximide", "result": "led to hyperglycosylation in the ER"},
      {"measurement": "endocytosis of transferrin", "setting": "endocytosis", "result": "did not affect endocytosis"}
    ]},
    {"smiles": "Fc1cc(F)c2c(c1)[C@H]1C=CC[C@H]1C(c1cccnc1)N2", "note": "(mixture of isomers) [GCA, Golgicide A, reference compound]", "values": [
      {"measurement": "distribution of GBF1-GFP", "setting": "GBF1", "result": "recruited to the fragmented Golgi"},
      {"measurement": "ER-stress (BIP up-regulation, ATF6 luciferase)", "setting": "BIP and ATF6 [2]", "result": "caused ER-stress"}
    ]},
    {"smiles": "C=C1[C@@H](C)[C@H]2[C@H](Cc3ccccc3)NC(=O)[C@]23[C@H](OC(C)=O)/C=C/[C@@](C)(O)C(=O)[C@@H](C)C/C=C/[C@H]3[C@@H]1O", "note": "[Cytochalasin D, cytochalasin D, reference compound]", "values": [
      {"measurement": "actin polymerization and distribution", "setting": "microtubuli or actin; 2 iM cytochalasin D or 10 iM FLI-06", "result": "depolymerized f-actin"}
    ]},
    {"smiles": "COC(=O)Nc1nc2ccc(C(=O)c3cccs3)cc2[nH]1", "note": "[nocodazole, reference compound]", "values": [
      {"measurement": "microtubule network", "setting": "microtubuli or actin; 1.5 ig/ml nocodazole or 10 iM FLI-06", "result": "almost completely disintegrated"}
    ]}
  ]
}
